Results taken from US4705799A, “Aminomethyl oxooxazolidinyl benzenes useful as antibacterial agents” (E. I. Du Pont de Nemours and Company, priority 1985, dated 1987).
Values after ≈ are worked out from the molar mass of the structure shown.

Tests used:
[1] = tested on: Staphylococcus epidermidis; assay: In vitro broth dilution minimal inhibitory concentration (standard microdilution method); type: cell-based; conditions: Mueller-Hinton broth, 24-hour; for MIC: 24 h, read-out: Microdilution Broth MIC
Escherichia coli [2] = assay: as above; type: cell-based; conditions: Escherichia coli, Mueller-Hinton broth, 24-hour; for MIC: read-out: Microdilution Broth MIC
Escherichia coli [3] = assay: In vivo efficacy of orally administered compounds in mouse intraperitoneal infections; conditions: mouse i.p. Escherichia coli infection, oral, dosed at infection and 4 h post-infection, 7 days; for ED50: 168 h, read-out: ED50 (50 percent effective dose)
Description: (§1) Determinations of in vivo efficacy are performed by inoculating mice intraperitoneally with cultures of the infecting organism diluted to produce 90-100% mortality in control animals within twenty-four hours. The diluents used were trypticase soy broth for E. coli and 5% aqueous hog gastric mucin for Staphylococcus aureus infections. The compounds are dissolved or suspended in 0.25% aqueous Methocel® (Methocel®: Hydroxypropyl Methylcellulose E15 Premium, Dow Chemical Company) for oral administration or sterile distilled water containing 5% dimethylsulfoxide (Fisher Scientific Company, Fairlawn, N.J.) for subcutaneous administration. The mice are dosed at the time of infection and again at four hours post-infection. Mortality is recorded daily until test termination seven days post infection and the 50 percent effective dose, ED50, is calculated by the Reed-Muench method (Reed, L. G. and Muench, H., "A simple method of estimating fifty percent end points," American Journal of Hygiene, 27, 493-497 (1938).

Staphylococcus aureus [4] = assay: as above; conditions: mouse i.p. Staphylococcus aureus infection, oral, dosed at infection and 4 h post-infection, 7 days; for ED50: Staphylococcus aureus, po, 168 h, read-out: ED50 (50 percent effective dose)
Description: as §1

Staphylococcus aureus [5] = assay: In vivo efficacy of compounds administered subcutaneously in mouse intraperitoneal infections; conditions: sc, 168 h; mouse i.p. Staphylococcus aureus infection; subcutaneous; dosed at infection and 4 h post-infection; 7 days; read-out: ED50 (50 percent effective dose)
Description: as §1

Row | SMILES | MIC [1] [µg/mL] | MIC (Escherichia coli [2]) [µg/mL] | Microdilution Broth MIC [1] [µg/mL] | Microdilution Broth MIC (Escherichia coli [2]) [µg/mL] | ED50 (Escherichia coli [3]) [mg/kg] | ED50 (Staphylococcus aureus [4]) [mg/kg] | ED50 (Staphylococcus aureus [5]) [mg/kg] | ED50 (50 percent effective dose) (Escherichia coli [3]) [mg/kg] | ED50 (50 percent effective dose) (Staphylococcus aureus [4]; 10080 min) [mg/kg]
1 | CS(=O)(=O)c1ccc(N2CC(CN=[N+]=[N-])OC2=O)cc1 (single isomer, unassigned) [Example 2, (l)-5-Azidomethyl-3-[4-(methylsulfonyl)phenyl]-2-oxazolidinone] | 6.3 (≈ 21.3 µM) | > 100 |  |  | 52.6 | 7.3 |  |  | 
2 | CCC(=O)NCC1CN(c2ccc(S(C)(=O)=O)cc2)C(=O)O1 (stereo not drawn) [Example 27] | 6.3 (≈ 19.3 µM) | 50 (≈ 153 µM) |  |  | 37 | 8 |  |  | 
3 | CC(=O)NCC1CN(c2ccc(S(C)(=O)=O)cc2)C(=O)O1 (single isomer, unassigned) [Example 23, (l)-N-[3-[4-(Methylsulfonyl)phenyl]-2-oxooxazolidin-5-ylmethyl]acetamide] | 3.2 (≈ 10.2 µM) | 25 (≈ 80 µM) |  |  | 14 | 3.3 |  |  | 
4 | COC(=O)NCC1CN(c2ccc(SC)cc2)C(=O)O1 (single isomer, unassigned) [Example 32, (l)-N-[3-[4-(methylthio)phenyl]-2-oxooxazolidin-5-ylmethyl]carbamic acid, methyl ester] | 12.5 (≈ 42.2 µM) | > 200 |  |  | 70.9 | 3.5 | < 4.4 |  | 
5 | CCOC(=O)NCC1CN(c2ccc(SC)cc2)C(=O)O1 (stereo not drawn) [Example 33] | 50 (≈ 161 µM) | > 200 |  |  | > 120 | 12.2 | 8.6 |  | 
6 | CS(=O)(=O)c1ccc(N2CC(CNC=O)OC2=O)cc1 (single isomer, unassigned) [Example 21, (l)-N-[3-[4-(Methylsulfonyl)phenyl]-2-oxooxazolidin-5-ylmethyl]formamide] | 6.3 (≈ 21.1 µM) | 100 (≈ 335 µM) |  |  | 30.3 | 7.3 |  |  | 
7 | CSc1ccc(N2CC(CNC(C)=O)OC2=O)cc1 (single isomer, unassigned) [Example 31, (l)-N-[3-[4-(methylthio)phenyl]-2-oxooxazolidin-5-ylmethyl]acetamide] | 3.9 (≈ 13.9 µM) | > 200 |  |  | 19.6 | 3.5 | < 4.4 |  | 
8 | CC(=O)NCC1CN(c2ccc(C(C)C)cc2)C(=O)O1 (single isomer, unassigned) [Example 51, (l)-N-[3-(4-isopropylphenyl)-2-oxooxazolidin-5-ylmethyl]acetamide] | 3.1 (≈ 11.2 µM) | > 200 |  |  | 62.9 | 6.4 |  |  | 
9 | CC(=O)NCC1CN(c2ccc(C#N)cc2)C(=O)O1 (stereo not drawn) [Example 59] | 100 (≈ 386 µM) | > 200 |  |  | 88 | 4.3 |  |  | 
10 | CS(=O)(=O)c1ccc(N2CC(CN)OC2=O)cc1 (single isomer, unassigned) [Example 11, (l)-5-Aminomethyl-3-[4-(methylsulfonyl)phenyl]-2-oxazolidinone] | > 100 | > 100 |  |  | 47.4 | 29.9 | 16.4 |  | 
11 | CC(=O)NCC1CN(c2ccc3c(c2)OCO3)C(=O)O1 (stereo not drawn) [Example 62] | 50 (≈ 180 µM) | > 200 |  |  | > 120 | 19.1 |  |  | 
12 | [N-]=[N+]=NCC1CN(c2ccc(S(N)(=O)=O)cc2)C(=O)O1 (single isomer, unassigned) [Example 3, (l)-4-[5-(Azidomethyl)-2-oxooxazolidin-3-yl]benzenesulfonamide] | 25 (≈ 84.1 µM) | > 100 |  |  | > 120 | 29.3 |  |  | 
13 | CC(=O)NCC1CN(c2ccc(C(F)(F)F)cc2)C(=O)O1 (stereo not drawn) [Example 41] | 12.5 (≈ 41.4 µM) | > 200 |  |  | > 120 | 5.3 | 6.1 |  | 
14 | COC(=O)NCC1CN(c2ccc(C(C)C)cc2)C(=O)O1 (stereo not drawn) [Example 52] |  |  | 6.3 | > 200.0 |  |  |  | > 120.0 | 4.9

Further lines, with some results ahead:

Row | MIC [1] [µg/mL] | MIC (Escherichia coli [2]) [µg/mL] | Microdilution Broth MIC [1] [µg/mL] | Microdilution Broth MIC (Escherichia coli [2]) [µg/mL] | SMILES | ED50 (Escherichia coli [3]) [mg/kg] | ED50 (Staphylococcus aureus [4]) [mg/kg] | ED50 (Staphylococcus aureus [5]) [mg/kg] | ED50 (50 percent effective dose) (Escherichia coli [3]) [mg/kg] | ED50 (50 percent effective dose) (Staphylococcus aureus [4]; 10080 min) [mg/kg]
15 | 25 (≈ 88.6 µM) | > 200 |  |  | C[S+]([O-])c1ccc(N2CC(CNC=O)OC2=O)cc1 (stereo not drawn) [Example 90] | 98.4 | 11.3 |  |  | 
16 | 9.4 (≈ 29 µM) | 150 (≈ 462 µM) |  |  | C=CC(=O)NCC1CN(c2ccc(S(C)(=O)=O)cc2)C(=O)O1 (stereo not drawn) [Example 69] | 65.7 | 11.9 |  |  | 
17 | 200 (≈ 716 µM) | > 200 |  |  | CC(=O)NCC1CN(c2ccccc2[N+](=O)[O-])C(=O)O1 (single isomer, unassigned) [Example 148, (l)-N-[3-(2-Nitrophenyl)-2-oxooxazolidin-5-ylmethyl]acetamide] | > 120 | 21 | 21.5 |  | 
18 | > 200 | > 200 |  |  | COC(=O)NCC1CN(c2ccc(S)cc2)C(=O)O1 (single isomer, unassigned) [Example 156, (l)-[3-(4-Mercaptophenyl)-2-oxooxazolidin-5-ylmethyl]carbamic acid, methyl ester] | > 120 | 4.5 | < 4.4 |  | 
19 | > 128 | > 128 |  |  | COC(=O)NCC1CN(c2ccc(Cl)cc2)C(=O)O1 (stereo not drawn) [Example 84] | > 120 | 79.2 | 80.5 |  | 
20 | > 200 | > 200 |  |  | COC(=O)NCC1CN(c2ccc(SC(C)=O)cc2)C(=O)O1 (single isomer, unassigned) [Example 155] | 82.2 | 3 | < 4.4 |  | 
21 | 100 (≈ 401 µM) | > 200 |  |  | CC(=O)NCC1CN(c2ccc(N)cc2)C(=O)O1 (single isomer, unassigned) [Example 149, (l)-N-[3-(4-Aminophenyl)-2-oxooxazolidin-5-ylmethyl]acetamide] | > 120 | 20.2 | 10.3 |  | 
22 | 12.5 (≈ 43.4 µM) | > 50 |  |  | C=CC(=O)NCC1CN(c2ccc(C(C)=O)cc2)C(=O)O1 (stereo not drawn) [Example 96] | 83.2 | 7.9 |  |  | 
23 | 18.8 (≈ 60.2 µM) | > 200 |  |  | COC(=O)NCC1CN(c2ccc([S+](C)[O-])cc2)C(=O)O1 (single isomer, unassigned) [Example 121, (l)-N-[3-[4-(Methylsulfinyl)phenyl]-2-oxooxazolidin-5-ylmethyl]carbamic acid, methyl ester] | 55.9 | 2.5 |  |  | 
24 | 25 (≈ 93.9 µM) | > 200 |  |  | CSc1ccc(N2CC(CNC=O)OC2=O)cc1 (stereo not drawn) [Example 89] | > 138 | 11 |  |  | 
25 | > 200 | > 200 |  |  | CC(=O)NCC1CN(c2ccc(SC(C)=O)cc2)C(=O)O1 (single isomer, unassigned) [Example 152, (l)-N-[3-[4-(Acetylthio)phenyl]-2-oxooxazolidin-5-ylmethyl]acetamide] | 24.8 | 4.4 | < 2.5 |  | 
26 | > 200 | > 200 |  |  | COC(=O)N(C)CC1CN(c2ccc(S(C)(=O)=O)cc2)C(=O)O1 (stereo not drawn) [Example 128] |  | 62 | 33.6 |  | 
27 | 12.5 (≈ 42.8 µM) | > 200 |  |  | CC(=O)NCC1CN(c2ccc(CC(C)O)cc2)C(=O)O1 (stereo not drawn) [Example 100] |  | 19.5 | 10.5 |  | 
28 | 2 (≈ 5.68 µM) | > 128 |  |  | CC(=O)NCC1CN(c2ccc(C(F)(F)C(F)(F)F)cc2)C(=O)O1 (stereo not drawn) [Example 108] |  | 8.4 | 20.4 |  | 
